# Experimental data from PubChem BioAssay (NCI).
# Several values for one entry are separate records, joined by “and”; a condition that tells them apart may be missing. Equal values may be shown once.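 Tested at 5 concentrations; 48 h exposure; 96-well plates; endpoints linearly interpolated, else capped at highest concentration. GI50: concentration for 50% inhibition of growth. At the TGI there is no net growth.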
# Key:
# Experiment in all cases: growth of human tumour cells (NCI), 48 h
# A498 renal = test system: A498 renal
# A549 NSCLC = test system: A549 NSCLC
# COLO 205 colon = test system: COLO 205 colon
# HCC-2998 colon = test system: HCC-2998 colon
# HS 578T breast = test system: HS 578T breast
# MDA-MB-231 breast = test system: MDA-MB-231 breast
# SF-295 CNS = test system: SF-295 CNS
# SK-MEL-2 melanoma = test system: SK-MEL-2 melanoma
# SK-MEL-28 melanoma = test system: SK-MEL-28 melanoma
# SNB-75 CNS = test system: SNB-75 CNS
SMILES,GI50 (A498 renal),TGI (A498 renal),GI50 (A549 NSCLC),TGI (A549 NSCLC),GI50 (COLO 205 colon),TGI (COLO 205 colon),GI50 (HCC-2998 colon),TGI (HCC-2998 colon),GI50 (HS 578T breast),TGI (HS 578T breast),GI50 (MDA-MB-231 breast),TGI (MDA-MB-231 breast),GI50 (SF-295 CNS),TGI (SF-295 CNS),GI50 (SK-MEL-2 melanoma),TGI (SK-MEL-2 melanoma),GI50 (SK-MEL-28 melanoma),TGI (SK-MEL-28 melanoma),GI50 (SNB-75 CNS),TGI (SNB-75 CNS)
O=S(=O)(O)c1ccc(Cl)cc1.[Cd],> 100 µM,> 100 µM,> 100 µM,> 100 µM,> 100 µM,> 100 µM,> 100 µM,> 100 µM,47 µM,> 100 µM,> 100 µM,> 100 µM,> 100 µM,> 100 µM,19.2 µM,40.4 µM,> 100 µM,> 100 µM,37.7 µM,97.2 µM
CN(CCCCCl)P(=O)(OCc1ccc([N+](=O)[O-])o1)C(F)(F)c1ccc(CC(=O)N[C@@H](CC(=O)O)C(=O)N[C@@H](Cc2ccc(C(F)(F)P(=O)(OCc3ccc([N+](=O)[O-])o3)N(C)CCCCCl)cc2)C(N)=O)cc1 (stereo not given in full),33 µM,87.5 µM,> 100 µM,> 100 µM,41 µM,> 100 µM,24.5 µM,56.7 µM,37.6 µM,> 100 µM,39.6 µM,> 100 µM,> 100 µM,> 100 µM,21.6 µM,57.4 µM,42.4 µM,> 100 µM,34.5 µM,91.9 µM
O=C(O)c1cc(N/C=C2\C(=O)c3ccccc3OC2O)ccc1O (stereo not given),35.8 µg/mL,77.5 µg/mL,53.7 µg/mL,> 150 µg/mL,30.6 µg/mL,77.9 µg/mL,27.4 µg/mL,50.2 µg/mL,19.6 µg/mL,140 µg/mL,24.5 µg/mL,78.9 µg/mL,18.1 µg/mL,52.8 µg/mL,30.6 µg/mL,68.7 µg/mL,31.8 µg/mL,113 µg/mL,25.2 µg/mL,129 µg/mL
CCCCCCCCCCCCOC1C(CNC(=O)C2OC3OC(C)(C)OC3C2NC(=O)CN2CCN(c3ccccn3)CC2)OC2OC(C)(C)OC21 (stereo not given),1.6 µM,2.97 µM,1.6 µM,3.07 µM,2.33 µM,5.01 µM,6.18 µM,19.7 µM,1.9 µM,4.69 µM,1.67 µM,3.14 µM,1.77 µM,3.48 µM,1.65 µM,3.32 µM,2.53 µM,7.47 µM,2.31 µM,6.77 µM
Nc1ccccc1/C=N\Nc1ccccc1,> 100 µM,> 100 µM,4.7 µM,> 100 µM,25.2 µM,> 100 µM,3.16 µM,> 100 µM,> 100 µM,> 100 µM,8.23 µM,> 100 µM,1.63 µM,> 100 µM,65.4 µM,> 100 µM,> 100 µM,> 100 µM,> 100 µM,> 100 µM
CC1(C)CC(=O)C2=C(C1)NC(SSC1=C(C#N)C(c3ccc(Br)cc3)C3=C(CC(C)(C)CC3=O)N1)=C(C#N)C2c1ccc(Br)cc1 (stereo not given),> 150 µg/mL,> 100 µM and 150 µg/mL,> 150 µg/mL,> 100 µM and 150 µg/mL,> 150 µg/mL,> 100 µM and 150 µg/mL,> 150 µg/mL,150 µg/mL,43.5 µg/mL,> 100 µM and 150 µg/mL,26.6 µg/mL,> 100 µM and 53.5 µg/mL,> 150 µg/mL,> 100 µM and 150 µg/mL,> 150 µg/mL,> 100 µM and 150 µg/mL,48.4 µg/mL,> 100 µM and 131 µg/mL,> 150 µg/mL,150 µg/mL
